For assay [1], the target named is Recombinant human Cbl-b (aa 36-427) (Homo sapiens (Human), UniProt Q13191). The assay can be described thus: Cbl-b Biochemical Assay (TR-FRET). To be noted: read-out: TR-FRET hCbl-b IC50. In a few lines: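 IC50 from 4-parameter fit of % inhibition (DMSO max, reference-inhibitor min), duplicate ten-point series. Compound preincubated with 6 nM Cbl-b, then Src-Zap70 (1-2.5 nM)/0.5 mM ATP reaction 60 min RT; EDTA quench with labelled UBE2D2-Ub and streptavidin-terbium, 60 min, HTRF at 520 nm.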
Chain of Recombinant human Cbl-b (aa 36-427) (Q13191 36-427): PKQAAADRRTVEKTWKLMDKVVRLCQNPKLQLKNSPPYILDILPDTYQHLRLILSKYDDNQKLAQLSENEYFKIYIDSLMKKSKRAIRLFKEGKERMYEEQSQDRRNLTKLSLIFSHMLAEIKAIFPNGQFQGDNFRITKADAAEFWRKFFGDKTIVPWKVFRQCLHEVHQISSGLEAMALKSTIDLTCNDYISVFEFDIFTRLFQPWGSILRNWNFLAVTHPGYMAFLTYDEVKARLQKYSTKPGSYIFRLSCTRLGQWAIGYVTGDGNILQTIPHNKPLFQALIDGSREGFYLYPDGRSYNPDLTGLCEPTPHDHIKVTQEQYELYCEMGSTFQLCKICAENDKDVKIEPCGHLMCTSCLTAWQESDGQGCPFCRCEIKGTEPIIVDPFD

Assay [2] deals with Recombinant human c-Cbl (aa 47-435) (Homo sapiens (Human), UniProt P22681). Description: c-Cbl Biochemical Assay (TR-FRET). How it is done: Recombinant human c-Cbl (aa 47-435) was expressed in E. coli, purified and biotinylated in vitro. The protein was diluted to 12 nM in freshly prepared assay buffer consisting of 50 mM HEPES, pH 7.0, 100 mM NaCl, 5 mM MgCl2, 0.01% Triton-X 100, 0.01% BSA and 1 mM DTT. Recombinant human Src (aa 254-536)-[…]-Zap-70 (aa 281-297) fusion protein was expressed in E. coli and purified. Protein was diluted in assay buffer to 5-20 nM and ATP was added to 1 mM. Recombinant human UBE2D2([…]) was expressed in E. coli, purified and ubiquitinated and Bodipy labelled in vitro. Protein was diluted to 200 nM in assay buffer without MgCl2 (or Cisbio PPI buffer). Streptavidin-Terbium was added to 2 nM and EDTA to 10 mM, to provide a binding assay mix. Compounds were dissolved in DMSO and diluted to prepare a ten-point half log dilution series. 100 nl of each compound concentration was dispensed in duplicate in a 384 well black assay plate using acoustic dispensing. Wells for maximum signal controls received 100 nl of DMSO only and wells for minimum controls received 100 nl of a reference inhibitor compound at a final assay concentration of […] to produce 100% inhibition. 5 μl of diluted c-cbl enzyme was added to all wells of the assay plate and incubated at RT for 30 min. The enzyme assay was initiated by addition of 5 μl of Src-Zap/ATP mix to all wells, and the plate incubated at RT for 60-90 min. The enzyme reaction was terminated and the binding reaction was initiated by adding 10 μl of binding assay mix to all wells and incubating the plate at RT for 60 min prior to assay read. Final assay conditions consisted of 6 nM c-cbl, 2.5-10 nM Src-Zap70, 0.5 mM ATP, 1% (v/v) DMSO (enzyme reaction) and 100 nM UBE2D2([…])-Ub-FL-BODIPY, 5 mM EDTA, 1 nM Streptavidin-Tb (binding reaction). The HTRF assay signal was measured at 520 nm on an Envision plate reader, with reference signal at 485 or 620 nm. Data was normalized using maximum and minimum assay controls: % Inhibition=100-(100*((maximum control)-unknown)/(maximum control-minimum control)). A 4-parameter dose-response equation was used to fit the normalized dose-response data and derive an IC50 for test compounds.
Chain of Recombinant human c-Cbl (aa 47-435) (P22681 47-435): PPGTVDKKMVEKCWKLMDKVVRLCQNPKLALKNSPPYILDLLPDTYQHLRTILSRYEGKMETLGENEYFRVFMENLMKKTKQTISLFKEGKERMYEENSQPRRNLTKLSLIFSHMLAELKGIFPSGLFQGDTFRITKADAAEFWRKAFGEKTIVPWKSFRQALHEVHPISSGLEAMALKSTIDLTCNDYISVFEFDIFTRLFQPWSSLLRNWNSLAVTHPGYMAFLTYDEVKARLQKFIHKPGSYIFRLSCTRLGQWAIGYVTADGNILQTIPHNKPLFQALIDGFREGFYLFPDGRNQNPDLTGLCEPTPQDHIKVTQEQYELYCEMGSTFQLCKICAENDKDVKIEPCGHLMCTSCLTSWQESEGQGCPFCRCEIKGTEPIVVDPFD
A general note: In TR-FRET formats the signal depends on donor and acceptor labels being close together.

Here are results for 20 compounds from patent US12325697B2 (Nimbus Clio, Inc., priority 2021, dated 2025).

SMILES strings stand for the structures.

For orientation: IC50 means the midpoint of a concentration-inhibition curve. For `COCCOCc1ccc2c(c1)C(=O)N(c1cc(-c3ccc(C#N)cc3-c3nncn3C)cc(C3CC3)n1)C2` [AIQ-2, 4-(2-Cyclopropyl-6-(6-((2-methoxyethoxy)methyl)-1-oxoisoindolin-2-yl)pyridin-4-yl)-3-(4-methyl-4H-1,2,4-triazol-3-yl)benzonitrile], the 50% inhibitory concentration (IC50) in assay [1] and in assay [2] was at most 200 nM throughout.

For the compound `CN(Cc1ccc2c(c1)C(=O)N(c1cc(-c3ccc(F)cc3-c3nncn3C)cc(C3CC3)n1)C2)CC1(O)CCC1` [AJS-1, 2-(6-Cyclopropyl-4-(4-fluoro-2-(4-methyl-4H-1,2,4-triazol-3-yl)phenyl)pyridin-2-yl)-6-((((1-hydroxycyclobutyl)methyl) (methyl)amino)methyl)isoindolin-1-one], the IC50 in assay [1] and in assay [2] was at most 200 nM each time.

Consider `Cn1cnnc1-c1cc(C#N)ccc1-c1cc(C2CC2)nc(N2Cc3c(F)cc(CN[C@@H]4COC[C@@H]4O)cc3C2=O)c1` [ALI-2, 4-{2-Cyclopropyl-6-[4-fluoro-6-({[(3R,4R)-4-hydroxyoxolan-3-yl]amino}methyl)-1-oxo-3H-isoindol-2-yl]pyridin-4-yl}-3-(4-methyl-1,2,4-triazol-3-yl)benzonitrile], for which the IC50 in assay [1] and in assay [2] was at most 200 nM throughout.

On to `Cn1cnnc1-c1cnn(C)c1-c1cc(C2CC2)nc(N2Cc3c(cc(CO)cc3C(F)(F)F)C2=O)c1` [AKI-1, 2-{6-Cyclopropyl-4-[2-methyl-4-(4-methyl-1,2,4-triazol-3-yl)pyrazol-3-yl]pyridin-2-yl}-6-(hydroxymethyl)-4-(trifluoromethyl)-3H-isoindol-1-one], for which the IC50 in assay [1] and in assay [2] was at most 200 nM in each case.

With `Cn1cnnc1-c1cc(C#N)ccc1-c1cc(C2CC2)nc(N2Cc3c(F)cc(CN4CC[C@H]5COC[C@@H]54)cc3C2=O)c1` (stereo in doubt) [AOT-2, 4-(2-Cyclopropyl-6-(4-fluoro-6-((hexahydro-1H-furo[3,4-b]pyrrol-1-yl)methyl)-1-oxoisoindolin-2-yl)pyridin-4-yl)-3-(4-methyl-4H-1,2,4-triazol-3-yl)benzonitrile], the IC50 in assay [1] and in assay [2] was at most 200 nM each time.

Turning to `CN1CCC[C@H]1COCc1cc2c(c(C(F)(F)F)c1)CN(c1cc(-c3ccc(F)cc3-c3nncn3C)cc(C3CC3)n1)C2=O` [AHR-4, (S)-2-(6-Cyclopropyl-4-(4-fluoro-2-(4-methyl-4H-1,2,4-triazol-3-yl)phenyl)pyridin-2-yl)-6-(((1-methylpyrrolidin-2-yl)methoxy)methyl)-4-(trifluoromethyl)isoindolin-1-one], the IC50 in assay [1] and in assay [2] was at most 200 nM in each case.

On to `COCCNCc1cc(F)c2c(c1)C(=O)N(c1cc(-c3ccc(C#N)cc3-c3nncn3C)cc(C(F)(F)F)n1)C2` [ALN-2, 4-[2-(4-Fluoro-6-{[(2-methoxyethyl)amino]methyl}-1-oxo-3H-isoindol-2-yl)-6-(trifluoromethyl)pyridin-4-yl]-3-(4-methyl-1,2,4-triazol-3-yl)benzonitrile], for which the IC50 in assay [1] and in assay [2] was at most 200 nM in each case.

Turning to `CCOc1cc(-c2ccc(F)cc2-c2nncn2C)cc(N2Cc3c(cc(COCCO)cc3C(F)(F)F)C2=O)n1` [AHQ-4, 2-(6-Ethoxy-4-(4-fluoro-2-(4-methyl-4H-1,2,4-triazol-3-yl)phenyl)pyridin-2-yl)-6-((2-hydroxyethoxy)methyl)-4-(trifluoromethyl)isoindolin-1-one], the IC50 in assay [1] and in assay [2] was at most 200 nM each time.

As for `Cn1cnnc1-c1cc(F)cc(F)c1-c1cc(C2CC2)nc(N2Cc3ccc(CNCC4(O)CCC4)cc3C2=O)c1` [AII-9, 2-{6-Cyclopropyl-4-[2,4-difluoro-6-(4-methyl-1,2,4-triazol-3-yl)phenyl]pyridin-2-yl}-6-({[(1-hydroxycyclobutyl)methyl]amino}methyl)-3H-isoindol-1-one], the concentration for half-maximal inhibition (IC50) in assay [1] and in assay [2] was at most 200 nM in each case.

In the case of `Cn1cnnc1-c1cc(C#N)ccc1-c1cc(C2CC2)nc(N2Cc3ccc(CO)cc3C2=O)c1` [AHV-1, 4-{2-Cyclopropyl-6-[6-(hydroxymethyl)-1-oxo-3H-isoindol-2-yl]pyridin-4-yl}-3-(4-methyl-1,2,4-triazol-3-yl)benzonitrile], the IC50 in assay [1] and in assay [2] was at most 200 nM in each case.

For `CN1CCC[C@@H]1COCc1cc2c(c(C(F)(F)F)c1)CN(c1cc(-c3ccc(F)cc3-c3nncn3C)cc(C3CC3)n1)C2=O` [AHO-4, 2-{6-Cyclopropyl-4-[4-fluoro-2-(4-methyl-1,2,4-triazol-3-yl)phenyl]pyridin-2-yl}-6-({[(2R)-1-methylpyrrolidin-2-yl]methoxy}methyl)-4-(trifluoromethyl)-3H-isoindol-1-one], the IC50 in assay [1] and in assay [2] was at most 200 nM each time.

Consider `CCOc1cc(-c2ccc(C#N)cc2-c2nncn2C)cc(N2Cc3ccc(CNCC4(F)CCC4)cc3C2=O)n1` [AKJ-1, 4-{2-Ethoxy-6-[6-({[(1-fluorocyclobutyl)methyl]amino}methyl)-1-oxo-3H-isoindol-2-yl]pyridin-4-yl}-3-(4-methyl-1,2,4-triazol-3-yl)benzonitrile], for which the IC50 in assay [1] and in assay [2] was at most 200 nM each time.

As for `Cn1cnnc1-c1cc(C#N)ccc1-c1cc(C2CC2)nc(N2Cc3c(F)cc(CNCC4COC4)cc3C2=O)c1` [ANB-1, 4-[2-Cyclopropyl-6-(4-fluoro-6-{[(oxetan-3-ylmethyl)amino]methyl}-1-oxo-3H-isoindol-2-yl)pyridin-4-yl]-3-(4-methyl-1,2,4-triazol-3-yl)benzonitrile], the half-maximal inhibitory concentration (IC50) in assay [1] and in assay [2] was at most 200 nM in each case.

Regarding `Cn1cnnc1-c1cc(C#N)ccc1-c1cc(C2CC2)nc(N2Cc3c(F)cc(CN4CC[C@H]5OCC[C@H]54)cc3C2=O)c1` (single isomer, unassigned) [ANH-1], the IC50 in assay [1] and in assay [2] was at most 200 nM in each case.

Take `Cn1cnnc1-c1cc(C#N)ccc1-c1cccc(N2Cc3ccc(CO)cc3C2=O)c1` [AJD-2, 3′-(6-(Hydroxymethyl)-1-oxoisoindolin-2-yl)-2-(4-methyl-4H-1,2,4-triazol-3-yl)-[1,1′-biphenyl]-4-carbonitrile]: the IC50 in assay [1] and in assay [2] was 1000 to 10000 nM each time.

As to `C[C@@H](NCC1CC1)c1ccc2c(c1)C(=O)N(c1cc(-c3ccc(C#N)cc3-c3nncn3C)cc(C3CC3)n1)C2` [AJJ-1, (R)-4-(2-Cyclopropyl-6-(6-(1-((cyclopropylmethyl)amino)ethyl)-1-oxoisoindolin-2-yl)pyridin-4-yl)-3-(4-methyl-4H-1,2,4-triazol-3-yl)benzonitrile], the half-maximal inhibitory concentration (IC50) in assay [1] and in assay [2] was at most 200 nM each time.

Consider `COCC(NCc1cc(F)c2c(c1)C(=O)N(c1cc(-c3ccc(C#N)cc3-c3nncn3C)cc(C3CC3)n1)C2)C(F)(F)F` (stereo not shown) [ANW-3, 4-[2-Cyclopropyl-6-(4-fluoro-1-oxo-6-{[(1,1,1-trifluoro-3-methoxypropan-2-yl)amino]methyl}-3H-isoindol-2-yl)pyridin-4-yl]-3-(4-methyl-1,2,4-triazol-3-yl)benzonitrile], for which the IC50 in assay [1] and in assay [2] was at most 200 nM throughout.

As for `C[C@H](NCc1ccc2c(c1)C(=O)N(c1cc(-c3ccc(C#N)cc3-c3nncn3C)cc(C3CC3)n1)C2)C1CCC1` [AOK-2, 4-{2-[6-({[(1S)-1-Cyclobutylethyl]amino}methyl)-1-oxo-3H-isoindol-2-yl]-6-cyclopropylpyridin-4-yl}-3-(4-methyl-1,2,4-triazol-3-yl)benzonitrile], the half-maximal inhibitory concentration (IC50) in assay [1] and in assay [2] was at most 200 nM in each case.

For `Cn1cnnc1-c1cc(F)ccc1-c1cc(C2CC2)nc(N2Cc3c(F)cc(CO)cc3C2=O)c1` [AMI-1, 2-{6-Cyclopropyl-4-[4-fluoro-2-(4-methyl-1,2,4-triazol-3-yl)phenyl]pyridin-2-yl}-4-fluoro-6-(hydroxymethyl)-3H-isoindol-1-one], the IC50 in assay [1] and in assay [2] was at most 200 nM throughout.

Take `Cn1cnnc1-c1cc(C#N)ccc1-c1cc(C2CC2)nc(N2Cc3ccc(CNC4CCOCC4)cc3C2=O)c1` [AMO-2, 4-(2-Cyclopropyl-6-{6-[(oxan-4-ylamino)methyl]-1-oxo-3H-isoindol-2-yl}pyridin-4-yl)-3-(4-methyl-1,2,4-triazol-3-yl)benzonitrile]: the IC50 in assay [1] and in assay [2] was at most 200 nM in each case.
